In US12246081B2, “Deodorant compositions” (Conopco, Inc., priority 2017, dated 2025):

Test system: S. hominis B10 C-S β lyase
Assay: Transformation of Cys-3M3SH to 3M3SH by purified S. hominis B10 C-S β lyase
Type: biochemical, Staphylococcus hominis
Conditions: for % inhibition: 2 mM Cys-3M3SH, 35° C. for 24 hours, relative to control without compound; for susceptibility of S. hominis C-S β-lyase to inhibition by classical inhibitors: qualitative statement, no concentration given
Text: The compounds identified by present invention represent a new class of deodorant actives that can be screened by the method disclosed herein. The method uses an odour-generating C-S β-lyase, in particular S. hominis B10 C-S β-lyase. In accordance with the procedure detailed in Example 1, the medium of the screening method comprises a 20 millimolar concentration of the compound to be screened. The medium further comprises S. hominis C-S β-lyase enzyme and 2 millimolar Cys-3M3SH. Following an incubation at 35° C. for a period of 24 hours, the reduction in 3M3SH released by S. hominis C-S β-lyase from Cys-3M3SH is measured. Herein, the inhibition of 3M3SH level is relative to a control without any compound being screened. In preferred embodiments, following the procedure detailed in Example 1, the medium comprises a 10 millimolar concentration of compound to be screened. In further preferred embodiments, the concentration of the compound to be screened can be 5 millimolar, preferably 2 millimolar, more preferably 1 millimolar, most preferably 0.5 millimolar.
The deodorant actives affecting S. hominis C-S β lyase are identified by using the following procedure. The Cys-3M3SH used in the procedure may be obtained using a method described in Chem. Biodivers., 2, 2005, 705-716. The purified S. hominis B10 C-S β lyase was prepared by cloning the gene encoding this enzyme into Escherichia coli using methodology known in the art. Recombinant S. hominis B10 C-S β-lyase was then expressed in E. coli and purified by immobilised metal ion affinity chromatography. M9 salts are mixtures of 6 g/L Na2HPO4, 3 g/L KH2PO4, 0.5 g/L NaCl, adjusted to pH 7.0 with NaOH.
Glass reaction tubes were set up, each containing 2 mM Cys-3M3SH (dissolved in M9 salts), 50 μM pyridoxal phosphate, purified S. hominis B10 C-S β lyase to a final concentration of 10 μg/ml, and M9 salts (or, where appropriate, a test material dissolved in M9 salts at, for example, 20 mM) to adjust the volume to 500 μl. Enzyme only (C-S beta-lyase) and substrate only (Cys-3M3SH) reactions were also included in each experiment. The reactions were incubated with shaking at 35° C. for 24 hours. To measure released 3M3SH, each reaction vial was first centrifuged at 13,000 rpm for 2 minutes. A volume of 0.095 ml labelling solution, consisting of 0.080 ml dH2O, 0.010 ml Tris (pH 8.0) and 0.005 ml 5,5′-dithiobis-(2-nitrobenzoic acid) (DTNB) stock solution (50 mM sodium acetate, 2 mM DTNB, dissolved in dH2O) was added to each well of a micro-titre plate. 0.005 ml of each reaction supernatant was added to the wells of the micro-titre plate, which was then incubated at room temperature for 5 minutes. Absorbance (A412) values, which correlate with the concentration of 3M3SH present, were recorded using a spectrophotometer. […] In these cases, a HPLC analysis was carried out according to the methodology described in J. Pharm. Biomed. Anal. 2008; 48:1375-80 and FEMS Microbiol. Lett., 263(16), 2015, fnv111.

[1] = material concentration = 2 millimolar
[2] = material concentration = 20 millimolar

Row | Compound | % inhibition [1] | % inhibition [2] | % inhibition (material concentration = 2 millimolar, listed as Cl) | susceptibility of S. hominis C-S β-lyase to inhibition by classical inhibitors
1 | 1,8-Dioxa-4-azaspiro[4.5]decane-3-carboxylic acid(N-CBz protected) [EX17] | 54.1% | – | – | –
2 | 1-oxa-4-azaspiro[4.5]decane-3-carboxylic acid(N-CBz protected) [EX16] | 30.3% | – | – | –
3 | 2-(2-furyl)1,3-thiazolide-4-carboxylic acid [EX4] | 20.8% | 80.4% | – | –
4 | N[C@H](COCc1ccccc1)C(=O)O [C1, O-benzyl-D-serine, reference compound] | 0% | 8.2% | does not present significant reduction of malodour | –
5 | COc1ccc(C2NC(C(=O)O)CS2)cc1O (stereo not shown) [EX1, 2-(3-hydroxy-4-methoxy-phenyl)-thiazolidine-4-carboxylic acid] | 34.9% | 100% | – | –
6 | COc1cc(C2NC(C(=O)O)CS2)ccc1O (stereo not shown) [EX2, 2-(4-hydroxy-3-methoxyphenyl)-1,3-thiazolidine-4-carboxylic acid] | 32.9% | 100% | – | –
7 | O=C(O)C1CSC2(CCC3(CC2)OCCO3)N1 (stereo not shown) [EX3, 1,4-dioxa-9-thia-12-azadispirol[4.2.4.2]tetradecane-11-carboxylic acid] | 32.3% | 80.6% | – | –
8 | CCC(CC)C1NC(C(=O)O)CS1 (stereo not shown) [EX5, 2-(1-ethylpropyl)-4-thiazolidine-4-carboxylic acid] | 46% | 94.1% | – | –
9 | O=C(O)C1CSC2(CCCCC2)N1 (stereo not shown) [EX6, 1-thia-4-azaspiro[4.5]decane-3-carboxylic acid] | 90.9% | 100% | – | –
10 | O=C(O)C1CSC2(CCN(Cc3ccccc3)CC2)N1 (stereo not shown) [EX7, 8-benzyl-1-thia-4,8-diazaspiro[4.5]decane-3-carboxylic acid] | 11.9% | 87.8% | – | –
11 | O=C(O)C1CSC(c2ccccc2)N1 (stereo not shown) [EX8, 2-phenylthiazolidine-4-carboxylic acid] | 12.3% | 95.9% | – | –
12 | C=CCOc1ccc(C2NC(C(=O)O)CS2)cc1 (stereo not shown) [EX9, 2-(4-(allyloxy)phenyl)-1,3-thiazolidine-4-carboxylic acid] | 39.7% | 100% | – | –
13 | COc1ccc(C2NC(C(=O)O)CS2)cc1 (stereo not shown) [EX10, 2-(4-methoxyphenyl)-1,3-thiazolidine-4-carboxylic acid] | 24.5% | 88.2% | – | –
14 | CCCCCCC1NC(C(=O)O)CS1 (stereo not shown) [EX11, 2-hexyl-1,3-thiazolane-4-carboxylic acid] | 87.5% | 100% | – | –
15 | O=C(O)C1CSC(c2ccccc2O)N1 (stereo not shown) [EX12, 2-(2-hydroxy-pheny)-thiazolidine-4-carboxylic acid] | 46.5% | 100% | – | –
16 | N[C@H]1CONC1=O [L-cycloserine, reference compound] | – | – | – | much less susceptible to inhibition
17 | NOCC(=O)O [aminooxyacetic acid, reference compound] | – | – | – | much less susceptible to inhibition
